According to publication PMC12090182, “Repurposing of the RIPK1-Selective Benzo[1,4]oxazepin-4-one Scaffold for the Development of a Type III LIMK1/2 Inhibitor” (ACS Chemical Biology, 2025):
Like-named read-outs stand apart in the source and are kept apart here.

Tests used:
LIMK2 = LIMK2 (Homo sapiens, UniProt P53671); experiment: Differential scanning fluorimetry assay for LIMK1/2; assay type: binding; conditions: LIMK2, 10 μM compound
Protocol: The assay was performed according to a previously established protocol. […] The compounds to be tested were added to a final concentration of 10 μM. […] Data were analyzed with MxPro software.

KIT(D816H) = KIT(D816H) (Homo sapiens, UniProt P10721, D816H); experiment: biochemical; assay type: binding; conditions: 1000 nM, read-out: Percent Control
[1] = target: T1, ABL1(T315I)-phosphorylated (Homo sapiens, UniProt P00519, T315I); experiment: biochemical; assay type: binding; conditions: compound concentration 100 nM; Entrez ABL1; read-out: Percent Control
PIK3CA(H1047L) = PIK3CA(H1047L) (Homo sapiens, UniProt P42336, H1047L); experiment: biochemical; assay type: binding; conditions: read-out: Percent Control
[2] = target: ABL1(F317I)-nonphosphorylated (Homo sapiens, UniProt P00519, F317I); experiment: biochemical; assay type: binding; conditions: read-out: Percent Control
EGFR(L858R,T790M) = EGFR(L858R,T790M) (Homo sapiens, UniProt P00533, L858R/T790M); experiment: biochemical; assay type: binding; conditions: read-out: Percent Control
EIF2AK1 = EIF2AK1 (Homo sapiens, UniProt Q9BQI3); experiment: scanMAX KINOMEscan (Eurofins); assay type: binding; conditions: 1000 nM, read-out: Percent Control
Source text: (§1) Supplement cb5c00097_si_002.xlsx, sheet "Table S6 (Eurofins Selectivity)" | column: Percent Control

CAMK2G = CAMK2G (Homo sapiens, UniProt Q13555); experiment: scanMAX KINOMEscan (Eurofins); assay type: binding; conditions: 1000 nM, read-out: Percent Control
Chain of CAMK2G (Q13555 whole entry): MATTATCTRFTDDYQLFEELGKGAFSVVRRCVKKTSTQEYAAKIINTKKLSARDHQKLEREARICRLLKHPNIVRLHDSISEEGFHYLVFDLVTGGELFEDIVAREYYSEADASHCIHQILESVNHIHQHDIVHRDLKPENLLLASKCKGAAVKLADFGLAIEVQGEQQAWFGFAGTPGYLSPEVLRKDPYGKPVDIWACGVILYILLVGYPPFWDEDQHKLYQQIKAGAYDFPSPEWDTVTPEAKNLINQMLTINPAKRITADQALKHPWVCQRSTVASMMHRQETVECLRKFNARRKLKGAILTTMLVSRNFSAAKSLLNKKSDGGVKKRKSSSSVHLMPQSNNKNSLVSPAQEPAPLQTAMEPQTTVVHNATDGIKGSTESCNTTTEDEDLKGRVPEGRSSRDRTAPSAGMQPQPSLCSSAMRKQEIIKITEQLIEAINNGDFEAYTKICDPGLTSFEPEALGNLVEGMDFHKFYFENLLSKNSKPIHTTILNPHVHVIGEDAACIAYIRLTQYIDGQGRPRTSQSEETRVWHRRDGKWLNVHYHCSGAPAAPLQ
Source text: as §1

MARK1 = MARK1 (Homo sapiens, UniProt Q9P0L2); experiment: scanMAX KINOMEscan (Eurofins); assay type: binding; conditions: compound concentration 100 nM; Entrez MARK1; read-out: Percent Control
Source text: as §1

PIK3CG = PIK3CG (Homo sapiens, UniProt P48736); experiment: scanMAX KINOMEscan (Eurofins); assay type: binding; conditions: 1000 nM, read-out: Percent Control
Source text: as §1

PRKCQ = PRKCQ (Homo sapiens, UniProt Q04759); experiment: scanMAX KINOMEscan (Eurofins); assay type: binding; conditions: 1000 nM, read-out: Percent Control
Source text: as §1

FGFR2 = FGFR2 (Homo sapiens, UniProt P21802); experiment: scanMAX KINOMEscan (Eurofins); assay type: binding; conditions: read-out: Percent Control
Chain of FGFR2 (P21802 22-821): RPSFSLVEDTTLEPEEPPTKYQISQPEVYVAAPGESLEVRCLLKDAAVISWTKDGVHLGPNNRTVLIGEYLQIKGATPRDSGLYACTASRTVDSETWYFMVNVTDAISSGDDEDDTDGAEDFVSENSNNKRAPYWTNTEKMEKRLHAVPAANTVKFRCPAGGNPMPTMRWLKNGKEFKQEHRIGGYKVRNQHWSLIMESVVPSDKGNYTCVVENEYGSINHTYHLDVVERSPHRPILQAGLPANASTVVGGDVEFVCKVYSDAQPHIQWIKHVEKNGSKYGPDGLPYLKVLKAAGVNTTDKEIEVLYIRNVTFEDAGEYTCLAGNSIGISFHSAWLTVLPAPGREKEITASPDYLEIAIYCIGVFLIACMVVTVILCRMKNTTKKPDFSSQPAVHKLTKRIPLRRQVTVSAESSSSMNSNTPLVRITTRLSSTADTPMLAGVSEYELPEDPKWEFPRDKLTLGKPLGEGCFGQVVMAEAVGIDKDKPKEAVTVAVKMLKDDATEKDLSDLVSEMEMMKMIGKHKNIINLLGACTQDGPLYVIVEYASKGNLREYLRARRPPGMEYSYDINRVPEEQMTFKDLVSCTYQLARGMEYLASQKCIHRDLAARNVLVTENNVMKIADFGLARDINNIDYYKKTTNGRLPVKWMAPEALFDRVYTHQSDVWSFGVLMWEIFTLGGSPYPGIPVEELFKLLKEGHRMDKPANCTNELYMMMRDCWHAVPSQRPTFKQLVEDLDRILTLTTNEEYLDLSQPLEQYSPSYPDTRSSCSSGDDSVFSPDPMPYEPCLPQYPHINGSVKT
Source text: as §1

NIK = NIK (Homo sapiens, UniProt Q99558); experiment: scanMAX KINOMEscan (Eurofins); assay type: binding; conditions: compound concentration 100 nM; Entrez MAP3K14; read-out: Percent Control
Source text: as §1

FGFR3 = FGFR3 (Homo sapiens, UniProt P22607); experiment: scanMAX KINOMEscan (Eurofins); assay type: binding; conditions: read-out: Percent Control
Chain of FGFR3 (P22607 23-806): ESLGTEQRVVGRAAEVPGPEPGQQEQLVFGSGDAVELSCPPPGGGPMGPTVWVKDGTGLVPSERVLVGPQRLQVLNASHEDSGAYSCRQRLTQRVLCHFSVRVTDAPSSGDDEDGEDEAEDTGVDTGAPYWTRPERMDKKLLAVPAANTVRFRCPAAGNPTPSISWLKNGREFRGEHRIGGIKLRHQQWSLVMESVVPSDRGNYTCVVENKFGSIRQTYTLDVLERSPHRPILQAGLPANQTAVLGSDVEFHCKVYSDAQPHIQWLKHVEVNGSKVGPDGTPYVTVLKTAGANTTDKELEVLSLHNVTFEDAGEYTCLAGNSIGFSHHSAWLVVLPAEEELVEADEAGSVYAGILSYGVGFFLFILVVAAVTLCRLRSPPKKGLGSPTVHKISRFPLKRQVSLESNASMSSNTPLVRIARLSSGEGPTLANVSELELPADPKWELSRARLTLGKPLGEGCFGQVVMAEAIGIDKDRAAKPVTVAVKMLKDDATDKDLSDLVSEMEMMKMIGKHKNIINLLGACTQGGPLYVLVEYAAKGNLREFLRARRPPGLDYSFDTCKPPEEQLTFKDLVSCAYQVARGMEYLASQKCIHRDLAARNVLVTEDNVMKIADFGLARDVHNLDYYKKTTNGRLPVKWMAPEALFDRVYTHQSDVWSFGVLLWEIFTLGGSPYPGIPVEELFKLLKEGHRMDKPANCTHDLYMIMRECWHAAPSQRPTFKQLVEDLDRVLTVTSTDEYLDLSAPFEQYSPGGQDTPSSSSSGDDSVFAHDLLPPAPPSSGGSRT
Source text: as §1

IKK-alpha = IKK-alpha (Homo sapiens, UniProt O15111); experiment: scanMAX KINOMEscan (Eurofins); assay type: binding; conditions: read-out: Percent Control
Chain of IKK-alpha (O15111 whole entry): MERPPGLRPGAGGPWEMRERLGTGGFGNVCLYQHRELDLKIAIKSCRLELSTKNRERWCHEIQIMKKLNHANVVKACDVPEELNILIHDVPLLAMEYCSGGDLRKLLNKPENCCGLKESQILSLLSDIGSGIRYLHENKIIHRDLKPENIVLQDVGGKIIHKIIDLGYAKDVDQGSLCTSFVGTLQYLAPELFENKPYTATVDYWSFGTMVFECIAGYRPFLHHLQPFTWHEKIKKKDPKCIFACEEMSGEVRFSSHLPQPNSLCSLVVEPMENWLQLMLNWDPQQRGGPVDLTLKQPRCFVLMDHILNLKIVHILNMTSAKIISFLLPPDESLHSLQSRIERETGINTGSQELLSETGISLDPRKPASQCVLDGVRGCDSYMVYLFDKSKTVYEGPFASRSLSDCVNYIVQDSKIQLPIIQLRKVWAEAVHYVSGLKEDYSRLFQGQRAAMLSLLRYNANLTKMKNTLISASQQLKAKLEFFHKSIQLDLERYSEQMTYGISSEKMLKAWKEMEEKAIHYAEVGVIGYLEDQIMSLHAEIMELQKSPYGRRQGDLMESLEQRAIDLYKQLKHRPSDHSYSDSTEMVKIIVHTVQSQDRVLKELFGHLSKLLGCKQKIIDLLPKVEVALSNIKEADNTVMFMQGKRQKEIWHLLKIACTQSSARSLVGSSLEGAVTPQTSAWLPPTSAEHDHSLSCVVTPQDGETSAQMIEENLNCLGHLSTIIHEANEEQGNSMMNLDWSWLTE
Source text: as §1

EPHA8 = EPHA8 (Homo sapiens, UniProt P29322); experiment: scanMAX KINOMEscan (Eurofins); assay type: binding; conditions: 1000 nM, read-out: Percent Control
Source text: as §1

PAK3 = PAK3 (Homo sapiens, UniProt O75914); experiment: scanMAX KINOMEscan (Eurofins); assay type: binding; conditions: 1000 nM, read-out: Percent Control
Source text: as §1

HPK1 = HPK1 (Homo sapiens, UniProt Q92918); experiment: scanMAX KINOMEscan (Eurofins); assay type: binding; conditions: read-out: Percent Control
Chain of HPK1 (Q92918 whole entry): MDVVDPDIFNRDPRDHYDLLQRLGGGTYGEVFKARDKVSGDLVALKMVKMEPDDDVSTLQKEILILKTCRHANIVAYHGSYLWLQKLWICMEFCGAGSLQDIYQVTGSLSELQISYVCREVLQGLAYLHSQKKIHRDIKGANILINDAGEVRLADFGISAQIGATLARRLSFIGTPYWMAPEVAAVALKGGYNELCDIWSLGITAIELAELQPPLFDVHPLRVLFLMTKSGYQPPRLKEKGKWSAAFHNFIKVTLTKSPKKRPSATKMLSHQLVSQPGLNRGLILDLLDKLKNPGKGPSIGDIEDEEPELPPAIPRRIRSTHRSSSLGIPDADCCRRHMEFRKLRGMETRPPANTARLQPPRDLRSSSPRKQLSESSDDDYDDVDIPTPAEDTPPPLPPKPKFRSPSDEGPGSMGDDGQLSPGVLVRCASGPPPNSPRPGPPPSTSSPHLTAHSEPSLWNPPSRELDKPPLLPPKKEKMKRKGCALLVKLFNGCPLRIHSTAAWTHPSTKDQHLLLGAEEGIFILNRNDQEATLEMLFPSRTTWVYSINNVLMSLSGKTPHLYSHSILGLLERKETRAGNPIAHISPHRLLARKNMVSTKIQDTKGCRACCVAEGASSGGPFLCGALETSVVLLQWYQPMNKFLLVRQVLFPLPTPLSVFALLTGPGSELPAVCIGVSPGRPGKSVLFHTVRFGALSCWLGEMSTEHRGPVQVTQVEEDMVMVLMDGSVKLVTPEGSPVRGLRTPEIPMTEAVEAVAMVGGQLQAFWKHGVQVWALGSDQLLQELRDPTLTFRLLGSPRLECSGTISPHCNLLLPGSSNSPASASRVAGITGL
Source text: as §1

GAK = GAK (Homo sapiens, UniProt O14976); experiment: scanMAX KINOMEscan (Eurofins); assay type: binding; conditions: read-out: Percent Control
Chain of GAK (O14976 whole entry): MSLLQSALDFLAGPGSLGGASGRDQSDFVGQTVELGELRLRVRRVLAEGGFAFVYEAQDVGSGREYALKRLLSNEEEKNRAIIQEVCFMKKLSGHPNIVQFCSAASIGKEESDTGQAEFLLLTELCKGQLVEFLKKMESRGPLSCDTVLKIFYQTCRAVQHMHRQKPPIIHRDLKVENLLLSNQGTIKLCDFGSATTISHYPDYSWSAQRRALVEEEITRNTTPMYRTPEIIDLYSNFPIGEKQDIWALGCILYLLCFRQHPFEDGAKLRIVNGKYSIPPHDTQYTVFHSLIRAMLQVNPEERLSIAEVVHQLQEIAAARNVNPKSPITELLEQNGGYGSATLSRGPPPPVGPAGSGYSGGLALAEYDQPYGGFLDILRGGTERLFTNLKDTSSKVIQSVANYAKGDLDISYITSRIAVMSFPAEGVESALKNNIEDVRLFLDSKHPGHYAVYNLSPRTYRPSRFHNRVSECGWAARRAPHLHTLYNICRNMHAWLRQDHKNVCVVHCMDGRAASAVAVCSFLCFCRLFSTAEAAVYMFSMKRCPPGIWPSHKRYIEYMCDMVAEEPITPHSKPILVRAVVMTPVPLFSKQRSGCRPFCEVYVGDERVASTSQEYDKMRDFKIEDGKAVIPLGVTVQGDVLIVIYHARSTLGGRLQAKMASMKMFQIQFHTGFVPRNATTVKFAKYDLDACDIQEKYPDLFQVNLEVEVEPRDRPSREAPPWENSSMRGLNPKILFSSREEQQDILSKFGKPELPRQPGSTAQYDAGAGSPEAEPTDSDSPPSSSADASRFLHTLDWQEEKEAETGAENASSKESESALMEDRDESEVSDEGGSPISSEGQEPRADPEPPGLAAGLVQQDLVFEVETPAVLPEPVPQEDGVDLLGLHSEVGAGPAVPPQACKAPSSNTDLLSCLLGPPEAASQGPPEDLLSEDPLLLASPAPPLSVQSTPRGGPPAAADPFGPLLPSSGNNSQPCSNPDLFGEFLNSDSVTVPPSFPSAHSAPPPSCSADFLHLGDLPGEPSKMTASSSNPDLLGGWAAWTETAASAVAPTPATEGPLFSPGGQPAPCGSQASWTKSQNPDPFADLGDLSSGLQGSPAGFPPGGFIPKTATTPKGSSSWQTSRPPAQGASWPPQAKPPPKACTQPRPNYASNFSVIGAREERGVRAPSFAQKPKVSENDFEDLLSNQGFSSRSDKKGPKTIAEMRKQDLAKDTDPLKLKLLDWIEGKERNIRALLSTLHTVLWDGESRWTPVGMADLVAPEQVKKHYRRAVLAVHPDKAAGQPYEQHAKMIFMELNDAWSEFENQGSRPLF
Source text: as §1

BIKE = BIKE (Homo sapiens, UniProt Q9NSY1); experiment: scanMAX KINOMEscan (Eurofins); assay type: binding; conditions: 1000 nM, read-out: Percent Control
Source text: as §1

ZAK = ZAK (Homo sapiens, UniProt Q9NYL2); experiment: scanMAX KINOMEscan (Eurofins); assay type: binding; conditions: compound concentration 100 nM; Entrez ZAK; read-out: Percent Control
Source text: as §1

FGFR4 = FGFR4 (Homo sapiens, UniProt P22455); experiment: scanMAX KINOMEscan (Eurofins); assay type: binding; conditions: 1000 nM, read-out: Percent Control
Source text: as §1

[3] = target: JAK1(JH2domain-pseudokinase) (Homo sapiens, UniProt P23458); experiment: scanMAX KINOMEscan (Eurofins); assay type: binding; conditions: 1000 nM, read-out: Percent Control
Source text: as §1

PKAC-beta = PKAC-beta (Homo sapiens, UniProt P22694); experiment: scanMAX KINOMEscan (Eurofins); assay type: binding; conditions: 1000 nM, read-out: Percent Control
Source text: as §1

BRAF = BRAF (Homo sapiens, UniProt P15056); experiment: scanMAX KINOMEscan (Eurofins); assay type: binding; conditions: 1000 nM, read-out: Percent Control
Source text: as §1

PRKR = PRKR (Homo sapiens, UniProt P19525); experiment: scanMAX KINOMEscan (Eurofins); assay type: binding; conditions: compound concentration 100 nM; Entrez EIF2AK2; read-out: Percent Control
Source text: as §1

ERK4 = ERK4 (Homo sapiens, UniProt P31152); experiment: scanMAX KINOMEscan (Eurofins); assay type: binding; conditions: 1000 nM, read-out: Percent Control
Source text: as §1

FLT3(D835H) = FLT3(D835H) (Homo sapiens, UniProt P36888, D835H); experiment: biochemical; assay type: binding; conditions: compound concentration 100 nM; Entrez FLT3; read-out: Percent Control
[4] = target: T1, ABL1(T315I)-phosphorylated; experiment: biochemical; assay type: binding; conditions: read-out: Percent Control
[5] = target: EGFR(L747-S752del, P753S) (Homo sapiens, UniProt P00533, DEL747-752/P753S); experiment: biochemical; assay type: binding; conditions: compound concentration 100 nM; Entrez EGFR; read-out: Percent Control
FLT3(ITD,D835V) = assay type: binding; conditions: 1000 nM
[6] = Pharmacokinetic screening in mice (IV and PO, cassette dosing); assay type: in vivo, mouse; conditions: plasma
Protocol: Test compounds were administered intravenously (0.1 mg mL^–1/kg) or orally (1 mg/5 mL/kg) by cassette dosing to nonfasted mice. After administration, blood samples were collected and centrifuged to obtain the plasma fraction. The plasma samples were deproteinized followed by centrifugation. The compound concentrations in the supernatant were analyzed by LC/MS/MS.

## CN1C(=O)[C@@H](N2CCc3c(C(N)=O)nn(Cc4ccccc4)c3C2=O)COc2ccccc21 [Compound 11]
LIMK2
  ΔTM (stabilization in the DSF assay): inactive

## CN1C(=O)[C@@H](N2CCc3c(nn(Cc4ccccc4)c3C(N)=O)C2=O)COc2cc(Cl)ccc21 [Compound 10, (S)-2-benzyl-6-(8-chloro-5-methyl-4-oxo-2,3,4,5-tetrahydrobenzo[b][1,4]oxazepin-3-yl)-7-oxo-4,5,6,7-tetrahydro-2H-pyrazolo[3,4-c]pyridine-3-carboxamide]
KIT(D816H)
  remaining activity at 1 µM: 97%
[1]
  remaining activity at 0.1 µM: 72%
PIK3CA(H1047L)
  remaining activity at 1 µM: 99%
[2]
  remaining activity at 1 µM: 69%
EGFR(L858R,T790M)
  remaining activity at 1 µM: 100%
EIF2AK1
  remaining binding at 1 µM: 94%
CAMK2G
  remaining binding at 1 µM: 84%
MARK1
  remaining binding at 0.1 µM: 76%
PIK3CG
  remaining binding at 1 µM: 90%
PRKCQ
  remaining binding at 1 µM: 91%
FGFR2; 1000 nM
  remaining binding at 1 µM: 100%
FGFR2; compound concentration 100 nM, Entrez FGFR2
  remaining binding at 0.1 µM: 100%
NIK
  remaining binding at 0.1 µM: 80%
FGFR3; 1000 nM
  remaining binding at 1 µM: 100%
FGFR3; compound concentration 100 nM, Entrez FGFR3
  remaining binding at 0.1 µM: 100%
IKK-alpha; 1000 nM
  remaining binding at 1 µM: 100%
IKK-alpha; compound concentration 100 nM, Entrez CHUK
  remaining binding at 0.1 µM: 93%
EPHA8
  remaining binding at 1 µM: 97%
PAK3
  remaining binding at 1 µM: 74%
HPK1; 1000 nM
  remaining binding at 1 µM: 100%
HPK1; compound concentration 100 nM, Entrez MAP4K1
  remaining binding at 0.1 µM: 99%
GAK; 1000 nM
  remaining binding at 1 µM: 100%
GAK; compound concentration 100 nM, Entrez GAK
  remaining binding at 0.1 µM: 87%
BIKE
  remaining binding at 1 µM: 82%
ZAK
  remaining binding at 0.1 µM: 89%
FGFR4
  remaining binding at 1 µM: 84%
[3]
  remaining binding at 1 µM: 94%
PKAC-beta
  remaining binding at 1 µM: 87%
BRAF
  remaining binding at 1 µM: 79%
PRKR
  remaining binding at 0.1 µM: 71%
ERK4
  remaining binding at 1 µM: 92%
FLT3(D835H)
  remaining activity at 0.1 µM: 84%
[4]
  remaining activity at 1 µM: 99%
[5]
  remaining activity at 0.1 µM: 97%
FLT3(ITD,D835V)
  Percent Control: 81%
[6]; 0.1 mg/kg, Mouse PK IV, 0.10 mg/kg, read-out: AUCiv
  AUC: 94.7 ng·h/mL
[6]; 0.1 mg/kg, Mouse PK IV, 0.10 mg/kg, read-out: C5min
  concentration at 5 min: 44.5 ng/mL
[6]; Mouse PK PO, 1.0 mg/kg
  Cmax: 11.8 ng/mL
  Tmax: 30 min
[6]; Mouse PK PO, 1.0 mg/kg, read-out: AUCpo
  AUC: 30.9 ng·h/mL
[6]; mouse, PO 1.0 mg/kg vs IV 0.10 mg/kg
  bioavailability: 4%
